Laboratory results as given in patent US9000033B2, “Composition for improving skin condition and appearance” (Arch Personal Care Products, L.P., priority 2008, dated 2015).

How the values were obtained:
[1] = system: COL1A1 (collagen 1A1 gene); assay: Human gene microarray, Type 1A1 Collagen gene expression in normal human dermal fibroblasts; assay type: cell-based; details: for expression levels of collagen 1A1 gene: an appropriate amount
Experimental: (§1) Normal human dermal fibroblasts were grown in culture flasks until confluent using appropriate culture conditions. […] A separate flask of cells was treated with culture media alone and acted as an untreated control. After applying the test material the cells the cells were incubated for 24 hours at 37±2° C. and 5±1% CO2. At the end of the incubation period the culture media was removed via aspiration and the cells were washed once with cold phosphate buffered saline. After removing the wash the cells they were lysed by adding 700 μl of guanidinium thiocyanate lysis solution. The cell lysate was stored at −75° C. until the RNA extraction process could be completed (see below).
(§2) To the cell lysates prepared above, an equal volume of 64% ethanol was added and the tubes were vortexed. After combining, up to 700 μl of the mixture was transferred to a glass fiber filter cartridge, and the cartridge was loaded into a 1.5 ml collection tube and the cartridge was centrifuged for 1 minute at 14,000 RPM. The flow through was discarded and any remaining mixture was loaded into the filter cartridge and the centrifugation process was repeated until all of the mixture had been processed. The filter was then washed to remove any residual cellular debris from the RNA bound to the glass fibers by subsequently applying 700 μl of wash solution 1 (1 time) and 500 μl of wash solution 2 (2 times) to the filter cartridge and centrifuging at 14,000 RPM for 1 minute to pass each wash through the cartridge. After each wash the flowthrough was discarded. After the final wash one final spin was performed without wash solution to remove any residual wash solution in the filter cartridge. The RNA bound to the glass fibers within the cartridge was eluted by applying 30 μl of Tris-EDTA buffer (10 mM Tris-HCl, 1 mM EDTA, preheated to 70-80° C.) to the cartridge and centrifuging the cartridge in a new collection tube at 14,000 RPM for one minute. The elution process was repeated with an additional 30 μl of preheated TE buffer. After the RNA was eluted its concentration was quantified using a Ribogreen assay.
(§3) mRNA Amplification (Ambion MessageAmnp aRNA kit) First Strand cDNA Synthesis: To start the first strand synthesis, 5 μg of total RNA for each sample was added to 600 μl PCR tubes and the total volume of liquid in the tube was adjusted to 12 μl with DEPC H2O. To each tube, 1 μl of T7 Oligo(dT) primer was added and the tube was incubated at 70±2° C. for 10 minutes to denature the RNA and then placed on ice to allow the primer to anneal to the poly A ends of the mRNA. After cooling 2 μl of 10× first strand buffer, 1 μl of RNAse inhibitor and 4 μl of dNTP Mix were added to each tube, and each tube was placed at 42° C. 1 μl of Reverse Transcriptase was added and the tubes were heated and maintained at 42±2° C. for 2 hours. […]
(§4) Second Strand Synthesis and cDNA Purification: For the synthesis of the second strand of cDNA the following items were added to the tubes above (in this order): 63 μl DEPC H2O, 10 μl 10× second strand buffer, 4 μl dNTP mix, 2 μl DNA Polymerase and 1 μl of RNAse H. The tube was mixed and then incubated at 16±2° C. for 2 hours. Towards the end of the 2 hour incubation a sufficient quantity of DEPC H2O was warmed to 50±2° C. and a cDNA purification filter cartridge was equilibrated with 50 μl of cDNA binding buffer (one cartridge per sample) for at least 5 minutes. […]

[2] = system: ELN (elastin gene); assay: Human gene microarray, Elastin gene expression in normal human dermal fibroblasts; assay type: cell-based; details: for expression levels of elastin gene: an appropriate amount
Experimental: as §1, §2, §3, §4

[3] = concentration from 0.0001 to 0.05%
[4] = normal human dermal fibroblasts, 0.05%
[5] = normal human dermal fibroblasts, 0.05% pomiferin, 24 hours, fluorescence intensity, Cy5 (treated) channel

Compound | expression levels of collagen 1A1 gene [1] | increasing collagen 1A1 gene expression [1, 3] | collagen 1A1 gene expression compared to untreated cells [1, 4] | F635 Median, COL1A1 [1, 5] | expression levels of elastin gene [2] | increasing elastin gene expression [2, 3] | elastin gene expression compared to untreated cells [2, 4] | F635 Median, ELN [2, 5]
CC(C)=CCc1c2c(c3occ(-c4ccc(O)c(O)c4)c(=O)c3c1O)C=CC(C)(C)O2 [pomiferin] | significantly increase | equally effective | statistically significant increase | 38576 | significantly increase | equally effective | statistically significant increase | 3010
CC(C)=CCc1c2c(c3occ(-c4ccc(O)cc4)c(=O)c3c1O)C=CC(C)(C)O2 [osajin] | significantly increase | – | – | – | significantly increase | – | – | –
